Source: ChEMBL document CHEMBL5537122, “Design, synthesis, and biological evaluation of 4-(2-fluorophenoxy)-7-methoxyquinazoline derivatives as dual EGFR/c-Met inhibitors for the treatment of NSCLC” (Eur J Med Chem, 2024)
Active and inactive are the calls of the source. No cut-off for these calls is given here.

Key:
PC-9 = experiment: Antiproliferative activity against human PC-9 cells overexpressing c-Met and EGFR assessed as reduction in cell viability incubated for 72 hrs by MTT assay; assay type: functional, cell-based; conditions: PC-9, 72 h
A549 [1] = experiment: Induction in apoptosis in human A549 cells overexpressing c-MET assessed as viable cells at 1 uM incubated for 24 hrs by Annexin V-FITC/Propidium Iodide staining based flow cytometry analysis (reference value: 81.92 %); assay type: functional; conditions: read-out: Activity
A549 [2] = experiment: Induction in apoptosis in human A549 cells overexpressing c-MET assessed as late apoptotic cells at 1 uM incubated for 24 hrs by Annexin V-FITC/Propidium Iodide staining based flow cytometry analysis (reference value: 7.59 %); assay type: functional
A549 [3] = experiment: Induction in apoptosis in human A549 cells overexpressing c-MET assessed as viable cells at 2.5 uM incubated for 24 hrs by Annexin V-FITC/Propidium Iodide staining based flow cytometry analysis (reference value: 81.92 %; assay type: functional; conditions: read-out: Activity
A549 [4] = experiment: Induction in apoptosis in human A549 cells overexpressing c-MET assessed as late apoptotic cells at 2.5 uM incubated for 24 hrs by Annexin V-FITC/Propidium Iodide staining based flow cytometry analysis (reference value: 7.59 %); assay type: functional
NCI-H1975 [5] = experiment: Induction in apoptosis in human NCI-H1975 cells assessed as early apoptotic cells at 1 uM incubated for 24 hrs by Annexin V-FITC/Propidium Iodide staining based flow cytometry analysis (reference value: 2.54 %); assay type: functional
NCI-H1975 [6] = experiment: Induction in apoptosis in human NCI-H1975 cells assessed as necrotic cells at 1 uM incubated for 24 hrs by Annexin V-FITC/Propidium Iodide staining based flow cytometry analysis (reference value: 1.42 %); assay type: functional
NCI-H1975 [7] = experiment: Induction in apoptosis in human NCI-H1975 cells assessed as viable cells at 2.5 uM incubated for 24 hrs by Annexin V-FITC/Propidium Iodide staining based flow cytometry analysis (reference value: 91.58 %); assay type: functional; conditions: read-out: Activity
L02 [8] = experiment: Induction in apoptosis in human L02 cells assessed as necrotic cells at 1 uM incubated for 24 hrs by Annexin V-FITC/Propidium Iodide staining based flow cytometry analysis (reference value: 6.63 %); assay type: toxicity, cell-based; conditions: l02, 24 h
L02 [9] = experiment: Induction in apoptosis in human L02 cells assessed as late apoptotic cells at 2.5 uM incubated for 24 hrs by Annexin V-FITC/Propidium Iodide staining based flow cytometry analysis (reference value: 0.36 %); assay type: toxicity, cell-based; conditions: l02, 24 h
A549 [10] = experiment: Induction of cell cycle arrest in human A549 cells overexpressing c-MET assessed as accumulation of cells at G1/G0 phase at 2.5 uM incubated for 24 hrs by RNase A/propidium iodide staining based flow cytometric analysis (reference value: 49.24 %); assay type: functional
A549 [11] = experiment: Induction of cell cycle arrest in human A549 cells overexpressing c-MET assessed as accumulation of cells at S phase at 2.5 uM incubated for 24 hrs by RNase A/propidium iodide staining based flow cytometric analysis (reference value: 37.87 %); assay type: functional
[12] = target: Epidermal growth factor receptor (Homo sapiens, UniProt P00533); experiment: Inhibition of wild type EGFR (unknown origin) at 10 uM relative to control
[13] = test system: Epidermal growth factor receptor (Homo sapiens), P00533 [L858R]; experiment: Inhibition of EGFR L858R mutant (unknown origin) at 10 uM relative to control
[14] = target: T1, Hepatocyte growth factor receptor (Homo sapiens, UniProt P08581); experiment: Inhibition of c-MET (unknown origin) at 10 uM relative to control
T1 sequence (P08581 whole entry): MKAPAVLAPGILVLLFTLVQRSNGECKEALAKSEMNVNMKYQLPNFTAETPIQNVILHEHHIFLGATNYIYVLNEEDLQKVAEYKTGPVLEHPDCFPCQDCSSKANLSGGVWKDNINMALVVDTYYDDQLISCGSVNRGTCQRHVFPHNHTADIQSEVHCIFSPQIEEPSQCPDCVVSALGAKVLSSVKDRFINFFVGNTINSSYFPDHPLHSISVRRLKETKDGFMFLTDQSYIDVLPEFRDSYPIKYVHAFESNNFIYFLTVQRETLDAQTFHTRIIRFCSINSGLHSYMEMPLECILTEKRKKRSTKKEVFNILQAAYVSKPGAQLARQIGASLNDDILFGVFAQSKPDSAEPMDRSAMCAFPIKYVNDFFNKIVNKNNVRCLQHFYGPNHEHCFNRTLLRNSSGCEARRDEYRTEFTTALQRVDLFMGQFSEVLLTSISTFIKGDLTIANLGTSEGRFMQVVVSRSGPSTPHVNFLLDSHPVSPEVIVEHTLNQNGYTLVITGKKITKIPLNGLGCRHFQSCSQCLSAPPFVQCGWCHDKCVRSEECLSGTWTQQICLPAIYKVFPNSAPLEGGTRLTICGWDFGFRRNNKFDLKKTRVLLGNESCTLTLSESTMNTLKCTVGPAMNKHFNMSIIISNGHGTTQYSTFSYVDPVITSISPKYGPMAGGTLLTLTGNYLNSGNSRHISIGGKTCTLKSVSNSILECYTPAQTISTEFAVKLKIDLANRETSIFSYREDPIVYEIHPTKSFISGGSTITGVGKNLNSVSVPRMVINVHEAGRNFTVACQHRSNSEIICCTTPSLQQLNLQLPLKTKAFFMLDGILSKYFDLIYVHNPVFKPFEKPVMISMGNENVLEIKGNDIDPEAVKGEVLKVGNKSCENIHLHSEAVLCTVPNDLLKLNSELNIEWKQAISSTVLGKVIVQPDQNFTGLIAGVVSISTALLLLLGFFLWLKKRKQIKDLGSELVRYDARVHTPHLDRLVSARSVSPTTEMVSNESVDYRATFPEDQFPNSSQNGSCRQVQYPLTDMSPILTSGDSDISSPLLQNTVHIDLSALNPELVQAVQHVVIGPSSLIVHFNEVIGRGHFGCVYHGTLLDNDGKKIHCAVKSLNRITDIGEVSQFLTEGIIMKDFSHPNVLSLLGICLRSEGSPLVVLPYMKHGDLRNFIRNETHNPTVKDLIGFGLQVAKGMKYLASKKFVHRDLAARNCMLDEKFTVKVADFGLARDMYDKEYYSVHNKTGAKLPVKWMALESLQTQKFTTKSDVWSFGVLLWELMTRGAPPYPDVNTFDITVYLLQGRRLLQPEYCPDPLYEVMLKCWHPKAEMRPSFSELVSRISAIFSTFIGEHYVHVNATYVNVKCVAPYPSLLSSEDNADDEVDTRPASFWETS

[15] = target: Macrophage-stimulating protein receptor (Homo sapiens) (UniProt Q04912); experiment: Inhibition of RON (unknown origin) at 10 uM
[16] = target: Proto-oncogene tyrosine-protein kinase ROS (Homo sapiens) (UniProt P08922); experiment: Inhibition of ROS (unknown origin) at 10 uM
[17] = target: Vascular endothelial growth factor receptor 1 (Homo sapiens) (UniProt P17948); experiment: Inhibition of FLT1 (unknown origin) at 10 uM
[18] = target: Tyrosine-protein kinase receptor UFO (Homo sapiens) (UniProt P30530); experiment: Inhibition of AXL (unknown origin) at 10 uM
Tyrosine-protein kinase receptor UFO (Homo sapiens), sequence (P30530 whole entry): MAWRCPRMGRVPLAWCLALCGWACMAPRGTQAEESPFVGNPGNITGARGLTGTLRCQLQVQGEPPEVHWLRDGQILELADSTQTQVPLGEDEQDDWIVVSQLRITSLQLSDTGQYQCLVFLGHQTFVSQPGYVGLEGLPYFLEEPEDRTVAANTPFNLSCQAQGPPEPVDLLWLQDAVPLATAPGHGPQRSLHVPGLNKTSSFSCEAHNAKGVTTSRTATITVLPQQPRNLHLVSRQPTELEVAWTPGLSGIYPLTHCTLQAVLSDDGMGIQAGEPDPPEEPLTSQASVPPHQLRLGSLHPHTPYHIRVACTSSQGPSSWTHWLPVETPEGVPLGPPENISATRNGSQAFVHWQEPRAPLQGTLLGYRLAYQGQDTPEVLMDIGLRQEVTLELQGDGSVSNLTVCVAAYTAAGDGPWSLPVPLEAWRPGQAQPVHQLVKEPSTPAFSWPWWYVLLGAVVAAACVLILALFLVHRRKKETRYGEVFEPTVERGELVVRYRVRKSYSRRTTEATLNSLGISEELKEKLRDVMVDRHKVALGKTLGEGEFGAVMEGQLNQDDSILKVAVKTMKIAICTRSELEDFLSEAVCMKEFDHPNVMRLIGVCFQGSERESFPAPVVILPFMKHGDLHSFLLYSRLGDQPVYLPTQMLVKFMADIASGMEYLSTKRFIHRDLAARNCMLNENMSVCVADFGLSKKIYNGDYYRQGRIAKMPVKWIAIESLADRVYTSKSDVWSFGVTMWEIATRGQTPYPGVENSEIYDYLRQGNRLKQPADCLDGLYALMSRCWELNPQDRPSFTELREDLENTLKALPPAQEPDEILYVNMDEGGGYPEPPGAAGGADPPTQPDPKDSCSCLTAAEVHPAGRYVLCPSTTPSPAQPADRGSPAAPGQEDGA

[19] = target: Insulin-like growth factor 1 receptor (Homo sapiens) (UniProt P08069); experiment: Inhibition of IGF-1R (unknown origin) at 10 uM
[20] = target: ALK tyrosine kinase receptor (Homo sapiens) (UniProt Q9UM73); experiment: Inhibition of ALK (unknown origin) at 10 uM
[21] = target: Insulin receptor (Homo sapiens) (UniProt P06213); experiment: Inhibition of INSR (unknown origin) at 10 uM
Insulin receptor (Homo sapiens), sequence (P06213 28-758 limits assumed): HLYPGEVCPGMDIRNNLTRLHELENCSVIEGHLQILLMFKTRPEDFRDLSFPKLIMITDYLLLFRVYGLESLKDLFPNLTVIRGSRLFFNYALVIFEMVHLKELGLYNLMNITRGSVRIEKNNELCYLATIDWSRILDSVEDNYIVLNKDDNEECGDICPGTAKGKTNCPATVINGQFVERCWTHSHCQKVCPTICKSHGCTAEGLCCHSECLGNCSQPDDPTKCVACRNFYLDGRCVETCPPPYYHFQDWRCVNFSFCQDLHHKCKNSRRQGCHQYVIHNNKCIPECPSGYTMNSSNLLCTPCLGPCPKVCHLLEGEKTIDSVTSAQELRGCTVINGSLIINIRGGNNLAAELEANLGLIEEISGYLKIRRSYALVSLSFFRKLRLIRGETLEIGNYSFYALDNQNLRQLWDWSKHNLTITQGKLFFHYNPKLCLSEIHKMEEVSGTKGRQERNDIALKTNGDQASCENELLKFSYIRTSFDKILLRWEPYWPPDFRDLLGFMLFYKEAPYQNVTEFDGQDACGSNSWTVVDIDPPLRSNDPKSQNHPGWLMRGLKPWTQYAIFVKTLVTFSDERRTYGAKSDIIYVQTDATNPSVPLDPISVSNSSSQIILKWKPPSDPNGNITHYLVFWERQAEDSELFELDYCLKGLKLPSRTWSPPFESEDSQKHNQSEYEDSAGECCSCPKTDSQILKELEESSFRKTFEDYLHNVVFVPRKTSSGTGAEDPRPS
Insulin receptor (Homo sapiens), sequence (P06213 763-1382 limits assumed): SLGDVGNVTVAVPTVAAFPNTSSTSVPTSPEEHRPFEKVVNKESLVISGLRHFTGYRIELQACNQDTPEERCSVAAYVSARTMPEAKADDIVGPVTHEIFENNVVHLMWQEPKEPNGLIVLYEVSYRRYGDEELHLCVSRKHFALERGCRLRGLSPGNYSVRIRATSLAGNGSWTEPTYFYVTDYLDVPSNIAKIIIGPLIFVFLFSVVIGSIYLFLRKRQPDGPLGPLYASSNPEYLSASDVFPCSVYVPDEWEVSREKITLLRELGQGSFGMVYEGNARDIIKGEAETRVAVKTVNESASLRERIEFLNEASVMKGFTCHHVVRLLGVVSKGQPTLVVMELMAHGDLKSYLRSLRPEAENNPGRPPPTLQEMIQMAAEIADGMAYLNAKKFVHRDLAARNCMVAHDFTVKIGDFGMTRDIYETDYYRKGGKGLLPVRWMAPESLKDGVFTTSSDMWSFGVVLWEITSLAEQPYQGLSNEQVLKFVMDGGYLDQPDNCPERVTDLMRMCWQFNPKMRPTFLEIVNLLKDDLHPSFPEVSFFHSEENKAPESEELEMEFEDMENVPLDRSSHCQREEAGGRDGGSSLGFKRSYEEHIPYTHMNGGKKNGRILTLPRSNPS

Homo sapiens = species: Homo sapiens; experiment: Inhibition of EGFR T790/C797S mutant (unknown origin) at 10 uM
[22] = Hemolytic activity in sheep erythrocytes at 128 ug/ml incubated for 2 hr by UV spectrophotometer relative to control; assay type: toxicity, cell-based, Ovis aries, Erythrocyte; conditions: at 128 µg/mL, read-out: Activity
[23] = Cardiotoxicity in KM mouse assessed as effect on creatine kinase level at 100 mg/kg, IG qd administered for 7 days by automatic biochemical analyzer; assay type: toxicity, organism-based; conditions: in vivo, po, 168 h, time 7 day
[24] = Hepatotoxicity in KM mouse assessed as effect on aspartate aminotransferase level at 100 mg/kg, IG qd administered for 7 days by automatic biochemical analyzer; assay type: toxicity, organism-based; conditions: in vivo, po, 168 h, time 7 day
[25] = Acute toxicity in KM mouse assessed as cell damage or necrosis in spleen at 100 mg/kg, IG qa administered for 7 days and measured on day 8 by hematoxylin and eosin staining based assay; assay type: organism-based; conditions: in vivo, po, 192 h, time 8 day
[26] = Acute toxicity in KM mouse assessed as cell damage or necrosis in kidney at 100 mg/kg, IG qa administered for 7 days and measured on day 8 by hematoxylin and eosin staining based assay; assay type: organism-based; conditions: in vivo, po, 192 h, time 8 day
A549 [27] = experiment: Antitumor activity against human A549 cells overexpressing c-MET xenografted in BALB/c nude mouse assessed as tumor growth inhibition at 40 mg/kg, IG qod measured for 24 days relative to control; assay type: functional; conditions: A549, po, 576 h, time 24 day, read-out: TGI
A549 [28] = experiment: Antitumor activity against human A549 cells overexpressing c-MET xenografted in BALB/c nude mouse assessed as tumor growth inhibition at 60 mg/kg, IG qod measured for 24 days relative to control; assay type: functional; conditions: A549, po, 576 h, time 24 day, read-out: TGI
A549 [29] = experiment: Inhibition of colony formation in human A549 cells overexpressing c-MET at 2 uM preincubated for 48 hrs followed by media replacement for every 2 days for 14 days by crystal violet staining based microscopic analysis relative to control; assay type: functional
NCI-H1975 [30] = experiment: Inhibition of colony formation in human NCI-H1975 cells at 1 uM preincubated for 48 hrs followed by media replacement for every 2 days for 14 days by crystal violet staining based microscopic analysis relative to control; assay type: functional
NCI-H1975 [31] = experiment: Inhibition of colony formation in human NCI-H1975 cells at 2 uM preincubated for 48 hrs followed by media replacement for every 2 days for 14 days by crystal violet staining based microscopic analysis relative to control; assay type: functional
[32] = target: Epidermal growth factor receptor (Homo sapiens, UniProt P00533, L858R); experiment: biochemical
Epidermal growth factor receptor (Homo sapiens, UniProt P00533, L858R), sequence (P00533 25-1210 L858R limits assumed): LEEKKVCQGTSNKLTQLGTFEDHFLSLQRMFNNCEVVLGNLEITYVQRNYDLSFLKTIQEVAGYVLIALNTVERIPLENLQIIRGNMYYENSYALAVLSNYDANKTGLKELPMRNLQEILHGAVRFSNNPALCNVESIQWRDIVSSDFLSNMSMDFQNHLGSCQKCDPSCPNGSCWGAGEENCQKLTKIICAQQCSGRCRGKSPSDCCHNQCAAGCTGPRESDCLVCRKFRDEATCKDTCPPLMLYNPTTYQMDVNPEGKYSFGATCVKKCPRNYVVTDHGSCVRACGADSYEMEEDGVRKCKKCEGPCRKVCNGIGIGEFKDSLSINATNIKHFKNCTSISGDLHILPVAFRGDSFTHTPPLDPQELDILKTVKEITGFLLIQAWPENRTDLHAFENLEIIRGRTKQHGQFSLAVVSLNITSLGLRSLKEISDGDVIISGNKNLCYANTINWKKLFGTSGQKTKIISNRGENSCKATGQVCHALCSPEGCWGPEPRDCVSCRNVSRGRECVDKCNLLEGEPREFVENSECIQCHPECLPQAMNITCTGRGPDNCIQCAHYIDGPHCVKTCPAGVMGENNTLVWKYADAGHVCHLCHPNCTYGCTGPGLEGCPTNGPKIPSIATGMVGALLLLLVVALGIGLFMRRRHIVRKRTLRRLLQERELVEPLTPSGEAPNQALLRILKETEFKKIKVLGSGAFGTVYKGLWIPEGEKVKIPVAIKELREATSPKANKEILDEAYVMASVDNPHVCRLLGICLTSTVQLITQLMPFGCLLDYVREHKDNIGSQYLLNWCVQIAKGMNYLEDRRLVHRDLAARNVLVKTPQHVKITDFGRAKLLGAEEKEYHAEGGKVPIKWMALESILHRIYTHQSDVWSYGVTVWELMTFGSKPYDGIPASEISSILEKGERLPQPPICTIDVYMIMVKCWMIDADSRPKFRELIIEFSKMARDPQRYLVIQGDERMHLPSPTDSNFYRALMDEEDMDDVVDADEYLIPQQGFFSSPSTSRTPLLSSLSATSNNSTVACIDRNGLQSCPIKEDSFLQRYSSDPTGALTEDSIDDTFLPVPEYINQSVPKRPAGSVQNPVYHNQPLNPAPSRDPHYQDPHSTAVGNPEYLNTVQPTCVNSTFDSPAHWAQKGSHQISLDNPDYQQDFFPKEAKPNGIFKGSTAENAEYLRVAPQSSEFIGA

[33] = target: T1, Hepatocyte growth factor receptor; experiment: biochemical
Description: Inhibition of N-terminal GST tagged human recombinant c-Met (956 to end residues) expressed in baculovirus infected Sf9 cells using Poly (4:1 Glu, Tyr) as substrate incubated for 60 mins in presence of ATP by ADP-Glo luminescent assay

Question: For C=CC(=O)Nc1cc2c(Oc3ccc(NC(=O)n4c(=O)c(-c5ccccc5)c(C)n4C)cc3F)cccc2cc1OC, which IC50 (PC-9) is on record?
Answer: 1.05 µM

Question: And the viability at 1 µM (A549 [1])?
Answer: 70.9%

Question: And the Activity (A549 [2])?
Answer: 12.12%

Question: What about the viability at 2.5 µM (A549 [3]) of the same compound?
Answer: 60.1%

Question: And the Activity (A549 [4])?
Answer: 22.82%

Question: What about the Activity (NCI-H1975 [5]) of the same compound?
Answer: 2.77%

Question: And the Activity (NCI-H1975 [6])?
Answer: 1.74%

Question: And the viability at 2.5 µM (NCI-H1975 [7])?
Answer: 85.5%

Question: And the Activity (L02 [8])?
Answer: 7.58%

Question: What about the Activity (L02 [9]) of the same compound?
Answer: 0.34%

Question: And the Activity (A549 [10])?
Answer: 57.29%

Question: And the Activity (A549 [11])?
Answer: 31.41%

Question: And the inhibition [12]?
Answer: > 90%

Question: What about the inhibition [13] of the same compound?
Answer: > 90%

Question: And the inhibition [14]?
Answer: > 90%

Question: What about the inhibition [15] of the same compound?
Answer: Active

Question: What about the inhibition [16] of the same compound?
Answer: Active

Question: And the inhibition [17]?
Answer: Active

Question: And the inhibition [18]?
Answer: inactive

Question: And the inhibition [19]?
Answer: inactive

Question: And the inhibition [20]?
Answer: inactive

Question: What about the inhibition [21] of the same compound?
Answer: inactive

Question: What about the inhibition (Homo sapiens) of the same compound?
Answer: inactive

Question: And the hemolysis at 2 h, 128 ug/ml [22]?
Answer: 5%

Question: What about the Activity [23] of the same compound?
Answer: Non-Toxic

Question: What about the Activity [24] of the same compound?
Answer: Non-Toxic

Question: What about the Activity [25] of the same compound?
Answer: Non-Toxic

Question: What about the Activity [26] of the same compound?
Answer: Non-Toxic

Question: And the inhibition in vivo at 40 mg/kg (A549 [27])?
Answer: 25%

Question: What about the inhibition in vivo at 60 mg/kg (A549 [28]) of the same compound?
Answer: 55.3%

Question: And the inhibition at 2 µM (A549 [29])?
Answer: ~100%

Question: And the inhibition at 1 µM (NCI-H1975 [30])?
Answer: ~50%

Question: And the inhibition at 2 µM (NCI-H1975 [31])?
Answer: ~100%

Question: What about the IC50 [32] of the same compound?
Answer: 0.0681 µM

Question: And the IC50 [33]?
Answer: 0.00026 µM
